Reference: the supplement of paper PMC13380429

Tests used:
Conditions in all cases: 72 h
Caco-2 [1] = experiment: cell viability relative to DMSO; higher = less toxic
Calu-3 [2] = experiment: as above
HepG2 [3] = experiment: as above
U2OS [4] = experiment: as above
Vero E6 [5] = experiment: as above
Caco-2 [6] = experiment: relative viability EC50 (midpoint between 100% and the lowest measured viability); higher = less toxic
Calu-3 [7] = experiment: as above
HepG2 [8] = experiment: as above
U2OS [9] = experiment: as above
Vero E6 [10] = experiment: as above
Caco-2 [11] = experiment: drug sensitivity score (DSS) for viability; higher = more toxic; extreme values may be limits of the assay
Calu-3 [12] = experiment: as above
HepG2 [13] = experiment: as above
U2OS [14] = experiment: as above
Vero E6 [15] = experiment: as above

| SMILES | cell viability (Caco-2 [1]; 1 nM) [%] | cell viability (Caco-2 [1]; 10 nM) [%] | cell viability (Caco-2 [1]; 100 nM) [%] | cell viability (Caco-2 [1]; 1000 nM) [%] | cell viability (Caco-2 [1]; 10000 nM) [%] | cell viability (Calu-3 [2]; 1 nM) [%] | cell viability (Calu-3 [2]; 10 nM) [%] | cell viability (Calu-3 [2]; 100 nM) [%] | cell viability (Calu-3 [2]; 1000 nM) [%] | cell viability (Calu-3 [2]; 10000 nM) [%] | cell viability (HepG2 [3]; 1 nM) [%] | cell viability (HepG2 [3]; 10 nM) [%] | cell viability (HepG2 [3]; 100 nM) [%] | cell viability (HepG2 [3]; 1000 nM) [%] | cell viability (HepG2 [3]; 10000 nM) [%] | cell viability (U2OS [4]; 1 nM) [%] | cell viability (U2OS [4]; 10 nM) [%] | cell viability (U2OS [4]; 100 nM) [%] | cell viability (U2OS [4]; 1000 nM) [%] | cell viability (U2OS [4]; 10000 nM) [%] | cell viability (Vero E6 [5]; 1 nM) [%] | cell viability (Vero E6 [5]; 10 nM) [%] | cell viability (Vero E6 [5]; 100 nM) [%] | cell viability (Vero E6 [5]; 1000 nM) [%] | cell viability (Vero E6 [5]; 10000 nM) [%] | relative viability EC50 (Caco-2 [6]) [µM] | relative viability EC50 (Calu-3 [7]) [µM] | relative viability EC50 (HepG2 [8]) [µM] | relative viability EC50 (U2OS [9]) [µM] | relative viability EC50 (Vero E6 [10]) [µM] | drug sensitivity score (Caco-2 [11]) | drug sensitivity score (Calu-3 [12]) | drug sensitivity score (HepG2 [13]) | drug sensitivity score (U2OS [14]) | drug sensitivity score (Vero E6 [15]) |
| --- | --- | --- | --- | --- | --- | --- | --- | --- | --- | --- | --- | --- | --- | --- | --- | --- | --- | --- | --- | --- | --- | --- | --- | --- | --- | --- | --- | --- | --- | --- | --- | --- | --- | --- | --- |
| CCOC(=O)[C@]12CC1/C(=N\O)c1ccccc1O2 (stereo not given in full) [CPCCOEt] | 103 | 94.7 | 89.2 | 98.8 | 104 | 94.1 | 105 | 92.3 | 98.4 | 95.4 | 91.7 | 102 | 93.5 | 104 | 99.2 | 98.7 | 92.2 | 96.4 | 94.4 | 96.4 | 93.5 | 99.1 | 90.6 | 95.2 | 110 | > 10 | > 10 | > 10 | > 10 | > 10 | 0 | 0 | 0 | 0 | 0 |
| O=C(O)Cn1c(C(=O)Nc2nc(-c3ccccc3Cl)cs2)cc2ccccc21 | 103 | 99.9 | 95.1 | 89.5 | 110 | 100 | 92.5 | 99.4 | 103 | 102 | 106 | 99.2 | 101 | 104 | 93.3 | 96 | 101 | 95.6 | 101 | 98.5 | 105 | 106 | 103 | 108 | 97.4 | > 10 | > 10 | > 10 | > 10 | > 10 | 0 | 0 | 0 | 0 | 0 |
| CCOCC(O)COc1ccc(NC(=O)CC[S+](C)C)cc1 (stereo not given) [suplatast] | 95.9 | 99 | 99.1 | 98.5 | 104 | 94.8 | 93.1 | 93.4 | 102 | 101 | 93.8 | 94.3 | 85 | 91.2 | 94.1 | 99.1 | 96.4 | 100 | 100 | 101 | 87.8 | 98.2 | 93.3 | 94.8 | 104 | > 10 | > 10 | > 10 | > 10 | > 10 | 0 | 0 | 0 | 0 | 0 |
| CCOc1cc(N)c(Cl)cc1C(=O)NCC1CN(Cc2ccc(F)cc2)CCO1 (stereo not given) [mosapride] | 89.6 | 93.4 | 99.9 | 96.1 | 100 | 95.7 | 87.4 | 105 | 97.6 | 106 | 95.4 | 99.7 | 98.8 | 98.3 | 101 | 101 | 95.9 | 99 | 95.9 | 103 | 99.1 | 102 | 101 | 94.5 | 98.3 | > 10 | > 10 | > 10 | > 10 | > 10 | 0 | 0 | 0 | 0 | 0 |
| Clc1cccc2c1CN(C1=NCCN1)C2 | 100 | 100 | 95.6 | 98.8 | 97.3 | 97.1 | 90.1 | 109 | 101 | 98.3 | 96.7 | 101 | 91.8 | 92.5 | 97.3 | 101 | 101 | 97.3 | 102 | 92.1 | 98.9 | 98.7 | 104 | 98.5 | 99.2 | > 10 | > 10 | > 10 | > 10 | > 10 | 0 | 0 | 0 | 0 | 0 |
| Cc1ccccc1C(=O)Nc1ccc(C(=O)N2CCCC(O)c3cc(Cl)ccc32)c(C)c1 (stereo not given) [tolvaptan] | 100 | 96.4 | 90.1 | 89.8 | 94.1 | 91 | 86.3 | 91.7 | 78.8 | 102 | 99.7 | 93 | 96.4 | 106 | 110 | 94.2 | 92.1 | 103 | 97.4 | 96.7 | 99.4 | 100 | 93.4 | 98.3 | 104 | > 10 | > 10 | > 10 | > 10 | > 10 | 0.1 | 0.5 | 0 | 0 | 0 |
| CCO[C@H]1O[C@@H]2O[C@@]3(C)CC[C@H]4[C@H](C)CC[C@@H]([C@H]1C)[C@@]24OO3 [artemotil] | 92.1 | 101 | 86.6 | 94.5 | 91.5 | 94.2 | 109 | 95.4 | 109 | 104 | 107 | 100 | 104 | 89.1 | 94.5 | 98.1 | 100 | 95.4 | 97.2 | 79.1 | 89.7 | 95.1 | 95.8 | 91.5 | 98 | > 10 | > 10 | > 10 | > 10 | > 10 | 0 | 0 | 0.2 | 1 | 0 |
